This note sets out measurements from PubChem BioAssay (NCI).

Some test systems named below: SNB-78 CNS; XF 498 CNS; DLD-1 colon; M19-MEL melanoma; DMS 273 small cell lung; NCI/ADR-RES ovarian; MDA-N; HOP-18 NSCLC.
Common to all, as to assay: growth of human tumour cells (NCI), 48 h

Values joined by “and” are separate entries in the source; they are usually repeats but may differ in a detail not shown here. Equal values may be shown once.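 Following 48 hours of exposure in 96-well plates, responses at five concentrations were used to interpolate endpoints linearly. GI50: concentration for 50% inhibition of growth. TGI is the concentration that stops growth completely.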 Some results are limits rather than exact numbers.

As for `CCOC(=O)CNc1nnnn1C1OC(CO)C(O)C1O` (configuration not stated), the TGI in the assay on SNB-78 CNS, in the assay on XF 498 CNS, in the assay with DLD-1 colon, in the assay with M19-MEL melanoma and with DMS 273 small cell lung was over 100 µM throughout.

`[CH3][Sn]([CH3])([CH3])[O][N+](=O)[O-]`: the GI50 in the assay with NCI/ADR-RES ovarian is 2.3 µM; in the assay with MDA-N, 5.14 µM. In addition, the values for the TGI with NCI/ADR-RES ovarian and in the assay with MDA-N were 5.7 µM and over 10 µM, respectively.

As to `C/C(=N/Nc1nc(C)cc(=O)[nH]1)C(=O)O`, the TGI in the assay on NCI/ADR-RES ovarian and in the assay on MDA-N was over 100 µM in each case.

For `O=[N+]([O-])c1cc2c([N+](=O)[O-])cccc2o1`, the TGI in the assay with NCI/ADR-RES ovarian amounted to 32.6 µM; in the assay with MDA-N, 23.6 µM.

`C[C@@H](Oc1cc(-n2cnc3ccc(OC[C@@H](O)CO)cc32)sc1C(N)=O)c1ccccc1Cl`: in the assay with NCI/ADR-RES ovarian, the GI50 was 1.64 µM and the TGI was over 25 µM.

As to `Cc1ccc(S(=O)(=O)N2CCc3ccc(O)c4c3C2Cc2ccc3c(c2-4)OCO3)cc1` (configuration not stated), in the assay on NCI/ADR-RES ovarian, the GI50 was 0.348 µM and the TGI came to 2.08 µM.

Turning to `Cc1ccc(OCC2OC(n3cnc4c(Br)nc(Br)nc43)CC2Oc2ccc(C)cc2)cc1` (configuration not stated), in the assay with NCI/ADR-RES ovarian, the GI50 is 20.4 µM; the TGI was 53.5 µM and 29.5 µM. Also, in the assay with MDA-N, the GI50 is 6.2 µM; the TGI is 17.4 µM and 9.89 µM.

Take `CCn1ccc(NS(=O)(=O)c2ccc(N)cc2)nc1=O`: in the assay with NCI/ADR-RES ovarian, the GI50 was over 100 µM and the TGI was over 100 µM.

For `FC(F)(F)c1cc(Nc2ccc3cc(OCCCN4CCOCC4)ccc3n2)ccc1Cl`, in the assay with NCI/ADR-RES ovarian, the GI50 is 2.69 µM and the TGI was 18 µM.

Consider `[O-]c1c2c(nn1-c1ccc(Cl)cc1)c1ccccc1c[n+]2Cc1ccccc1`, for which the TGI in the assay with SNB-78 CNS, with XF 498 CNS, in the assay on DLD-1 colon, with DMS 273 small cell lung and in the assay with HOP-18 NSCLC was over 100 µM throughout.

As for `CN(C)CCOC(=O)Nc1nc2ccc(Sc3ccccc3)cc2[nH]1`, in the assay with NCI/ADR-RES ovarian, the GI50 was 2.44 µM and the TGI is 9.65 µM.

Consider `C1C[OH+]CC[OH+]CCNCC[OH+]CC[OH+]CCN1.Cl.[Cl-].[Pt+4]`, for which the GI50 in the assay with DLD-1 colon, in the assay on DMS 273 small cell lung and in the assay with HOP-18 NSCLC was over 100 µM throughout. Besides, the TGI in the assay on DLD-1 colon, in the assay on DMS 273 small cell lung and in the assay with HOP-18 NSCLC was over 100 µM in each case.

With `CSc1ccc(C(=O)/C=C/c2ccccc2Cl)cc1`, in the assay on NCI/ADR-RES ovarian, the GI50 is 18.9 µM and the TGI was 40.1 µM.

For the molecule `COc1cc(/C=C/C(=O)c2c(C)nc3ccccc3c2C)ccc1OCCCN1CCN(C(=O)c2ccco2)CC1`, in the assay with NCI/ADR-RES ovarian, the GI50 is 5.55 µM and the TGI is 45.2 µM.

For `N#CC1C(=O)NC(c2ccccc2[N+](=O)[O-])c2sc3c(F)cccc3c21` (configuration not stated), in the assay with NCI/ADR-RES ovarian, the GI50 is 8.06 µM and the TGI is 39.8 µM.

Turning to `COCc1c(-c2ccc(NC(=O)Nc3cc(C(F)(F)F)ccc3F)c(F)c2)c2c(N)ncnn2c1CN1CCOCC1`, in the assay with NCI/ADR-RES ovarian, the GI50 is 3.12 µM and the TGI is over 10 µM.

In the case of `CCN(CC)CCn1c2ccccc2c(=O)c2c(OC)ccc(OC)c21`, the TGI in the assay on SNB-78 CNS, in the assay on XF 498 CNS, in the assay with M19-MEL melanoma and with DMS 273 small cell lung was over 100 µM each time.

As for `CCOCc1cc(=O)c2c(OC)cc3c(c2o1)CCC(C)(C)O3`, the TGI with SNB-78 CNS, in the assay with XF 498 CNS, in the assay on DLD-1 colon, in the assay on M19-MEL melanoma and in the assay on HOP-18 NSCLC was over 100 µM in each case.

As to `Cc1nccc2c3ccc(OCc4cn(-c5ccc(Cl)cc5)nn4)cc3n(CC(C)C)c12`, in the assay on NCI/ADR-RES ovarian, the GI50 was 1.73 µM and the TGI came to 30.8 µM.

With `CCOC(=O)c1cccnc1C(OC(C)=O)OC(C)=O`, the TGI with SNB-78 CNS, with XF 498 CNS, in the assay on DLD-1 colon, in the assay on M19-MEL melanoma, in the assay with DMS 273 small cell lung and in the assay with HOP-18 NSCLC was over 100 µM throughout.

Consider `O=[N+]([O-])c1ccc(Sc2ccncn2)c([N+](=O)[O-])c1`, for which, in the assay with NCI/ADR-RES ovarian, the GI50 was 4.46 µM and the TGI was 14.1 µM.

In the case of `Nc1c(F)cc(-c2nc3cc(F)ccc3[se]2)cc1Br`, in the assay with NCI/ADR-RES ovarian, the GI50 is 38.9 µM and the TGI was over 100 µM.

`O=C(/C=C/OC(=O)c1cccc(Cl)c1)c1ccc(Cl)cc1`: in the assay on NCI/ADR-RES ovarian, the GI50 is 63.9 µM and the TGI is over 100 µM.

For `Cn1c2ccccc2c2c(=O)n(CCCC(=O)OC(=NC3CCCCC3)NC3CCCCC3)c3c(-c4ccccc4)nnn3c21`, in the assay with NCI/ADR-RES ovarian, the GI50 was 94.9 µM and the TGI is over 100 µM.

For the molecule `COc1ccc(N(C)c2nc(Cl)nc3cnn(C)c23)cc1`, in the assay on NCI/ADR-RES ovarian, the GI50 was under 0.01 µM and the TGI is over 100 µM.

As to `CCCN1CCC(c2ccc(Nc3nc(Nc4cc(F)ccc4C(N)=O)c4cc[nH]c4n3)c(OC)c2)CC1`, in the assay with NCI/ADR-RES ovarian, the GI50 was 3.2 µM and the TGI turned out to be 8.37 µM.

As to `CC1C2CC=CC(=O)[C@@]2(C)CCC12OCCO2` (some centres not stated), the TGI in the assay with SNB-78 CNS, with DLD-1 colon, in the assay on M19-MEL melanoma and with DMS 273 small cell lung was over 100 µM throughout.

`CCOC1CC2OC(=O)C1C=C2C(=O)OC` (configuration not stated): the TGI in the assay on SNB-78 CNS is over 100 µM; in the assay with XF 498 CNS it was 53.9 µM; in the assay with DLD-1 colon it was 65.8 µM; in the assay with M19-MEL melanoma it was over 100 µM; with HOP-18 NSCLC it was over 100 µM.

Take `COc1ccc2c(c1OC(C)=O)C1=CC(=O)CCC13CCNC3C2` (configuration not stated): the TGI in the assay with NCI/ADR-RES ovarian and with MDA-N was over 100 µM throughout.

For the molecule `CN1CCN(Cc2cc(NC(=O)c3cccc(C#Cc4cccc5[nH]nc(N)c45)c3)cc(C(F)(F)F)c2)CC1`, in the assay with NCI/ADR-RES ovarian, the GI50 was 2.02 µM and the TGI was determined as 4.2 µM.

As to `COC1=CC(=O)c2nc(Cl)ccc2C1=O`, in the assay on NCI/ADR-RES ovarian, the GI50 is 1.98 µM and the TGI was 4.24 µM.

`COc1cc2c(cc1C)NC(=O)/C2=C\c1c[nH]c2ccccc12`: in the assay with NCI/ADR-RES ovarian, the GI50 is 13 µM and the TGI was found to be 47.6 µM.
